Data reported in patent publication US11845724B2, “USP30 inhibitors and uses thereof” (Vincere Biosciences, Inc., priority 2019, dated 2023).
Read-outs that look alike come from different tables or passages of the source.

Key:
USP30 [1] = target: T1, USP30 (Homo sapiens (Human), UniProt Q70CQ3); assay: Dundee MALDI-TOF mass spectrometry assay (% DUB activity remaining at 1 μM); assay type: biochemical; settings: % DUB activity remaining at compound concentration of 1 μM; avg; read-out: Dundee % Activity at 1 μM (avg in vitro MS assay)
T1 sequence (Q70CQ3 whole entry): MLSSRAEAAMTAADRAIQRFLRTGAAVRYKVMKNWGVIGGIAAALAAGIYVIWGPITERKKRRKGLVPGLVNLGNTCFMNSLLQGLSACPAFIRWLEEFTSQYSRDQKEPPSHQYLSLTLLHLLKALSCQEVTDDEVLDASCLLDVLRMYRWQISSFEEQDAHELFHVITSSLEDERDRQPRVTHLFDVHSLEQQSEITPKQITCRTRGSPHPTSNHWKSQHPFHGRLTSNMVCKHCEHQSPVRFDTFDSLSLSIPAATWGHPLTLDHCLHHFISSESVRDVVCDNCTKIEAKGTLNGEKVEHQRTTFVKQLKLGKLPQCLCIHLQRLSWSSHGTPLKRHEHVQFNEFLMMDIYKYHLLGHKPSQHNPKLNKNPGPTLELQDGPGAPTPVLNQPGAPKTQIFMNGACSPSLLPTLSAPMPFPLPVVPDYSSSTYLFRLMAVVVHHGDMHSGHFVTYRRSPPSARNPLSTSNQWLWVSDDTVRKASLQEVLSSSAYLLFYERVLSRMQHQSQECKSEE
Description: Compounds were tested in a MALDI-TOF assay based on the paper by Ritorto et al. (Ritorto et al. Screening of DUB activity and specificity by MALDI-TOF mass spectrometry. Nat. Commun. 5:4763).
USP30 (25 ng/μl) tested against K48-linked diubiquitin (5.6 μM). USP30 was diluted in a buffer containing 40 mM Tris, 0.01% BSA, 1 mM DTT and K48 in 40 mM Tris, 0.01% BSA.
The compounds were pre-incubated with the USP30 for 5 mins at room temp before the K48 dimer addition. The assay mixture was then incubated for 45 mins at room temp. The assay was stopped by the addition of TFA to a final concentration of 2% (v/v).
Acidified samples of the DUB assays were mixed with 0.5 mM 15N-ubiquitin and then with one part of 2% (v/v) TFA and one part of 2,5 DHAP matrix solution (7.6 mg of 2,5 DHAP in […] ethanol and […] of an aqueous 12 mg ml 1 diammonium hydrogen citrate). Then 250 nl of these solutions were spotted onto an MTP AnchorChip 1,536 TF and this is analysed on the Bruker rapifleX MALDI-TOF.
Table 22 presents the Dundee MALDI-TOF values expressed as % DUB activity remaining at a compound concentration of 1 μM.

[2] = target: recombinant USP30 (amino acids 57-517 of the human sequence) (Homo sapiens (Human), UniProt Q70CQ3); assay: In vitro USP30 biochemical assay (Ubiquitin-Rhodamine)
Sequence of recombinant USP30 (amino acids 57-517 of the human sequence) (Q70CQ3 57-517): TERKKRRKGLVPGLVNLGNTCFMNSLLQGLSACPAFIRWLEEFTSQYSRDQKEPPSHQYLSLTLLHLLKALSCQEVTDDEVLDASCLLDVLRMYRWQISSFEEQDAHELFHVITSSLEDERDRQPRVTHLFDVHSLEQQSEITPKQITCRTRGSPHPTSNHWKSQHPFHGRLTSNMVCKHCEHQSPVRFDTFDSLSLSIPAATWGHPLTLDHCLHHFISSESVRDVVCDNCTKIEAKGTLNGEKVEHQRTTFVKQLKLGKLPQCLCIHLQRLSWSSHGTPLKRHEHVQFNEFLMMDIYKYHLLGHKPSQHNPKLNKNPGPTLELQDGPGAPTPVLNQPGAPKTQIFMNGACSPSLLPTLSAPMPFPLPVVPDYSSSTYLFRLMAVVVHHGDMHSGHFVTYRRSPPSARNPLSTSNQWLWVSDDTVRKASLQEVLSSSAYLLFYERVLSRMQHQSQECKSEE
Description: In vitro biochemical assay to establish the potency of compounds for USP30 inhibition: a 384-well plate assay using a fluorophore tagged substrate of USP30 was used for in vitro screening of compounds. Each compound was tested at 10 different concentrations (0.5 to 10,000 nM) in duplicate wells. Compounds were pre-incubated at 25° C. for 30 min in an assay buffer consisting of 20 mM Tris/HCl, pH8.0, 1 mM GSH, 0.01% Triton X-100, 0.03% BGG and 1.5 nM recombinant USP30 (amino acids 57-517 of the human sequence with a C-terminal 6-His tag). Following the pre-incubation, Ubiquitin-Rhodamine substrate dissolved in the assay buffer was added at the final concentration of 25 nM to each well and plates were incubated at 25° C. for an additional 75 minutes. The reaction was stopped by adding 10 mM citric acid and fluorescence was read using excitation wavelength 485 nm, emission of 535 nm. Data were analyzed using Graph Pad Prism software with a four-parameter (floating slope) fit to log concentration data to determine IC50s.

USP30 [3] = target: T1, USP30; assay: Dundee MALDI-TOF mass spectrometry assay (IC50); assay type: biochemical; settings: USP30 25 ng/μl, K48-linked diubiquitin 5.6 μM
Summary of the method: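 USP30 (25 ng/μl) preincubated with compound 5 min at RT in Tris/BSA/DTT buffer, then K48-linked diubiquitin (5.6 μM) added for 45 min at RT. Stopped with 2% TFA; cleavage quantified by MALDI-TOF mass spectrometry to give IC50.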

[4] = USP30 IC50 μM (avg), Ubiquitin-Rhodamine substrate 25 nM, 1.5 nM recombinant USP30
[5] = avg, read-out: Dundee IC50 μM (avg in vitro MS assay)
[6] = read-out: USP30 IC50 μM (avg), Ubiquitin-Rhodamine substrate 25 nM, 1.5 nM recombinant USP30
[7] = Dundee IC50 μM (avg in vitro MS assay)

SMILES | activity at 1 µM (USP30 [1]) | IC50 [2, 4] | IC50 (USP30 [3]; [5]) | IC50 [2, 6] | IC50 (USP30 [3]; [7])
CC(C)(C)NS(=O)(=O)c1ccc(NC(=O)[C@H](Cc2ccccc2)NC(=O)OC2CCOCC2)cc1 [Compound I-43, (S)-tetrahydro-2H-pyran-4-yl 1-(4-(N-tert-butylsulfamoyl)phenylamino)-1-oxo-3-phenylpropan-2-ylcarbamate] | 50 to 75% | 1 to 10 µM |  |  | 
CC(C)(C)NS(=O)(=O)c1ccc(OC[C@H](Cc2ccccc2)NC(=O)c2ccc(F)cc2)cc1 [Compound I-45, (S)-N-(1-(4-(N-tert-butylsulfamoyl)phenoxy)-3-phenylpropan-2-yl)-4-fluorobenzamide] | > 75% |  | > 1 µM |  | 
CC(C)(C)NS(=O)(=O)c1ccc(NC(=O)[C@H](Cc2ccccc2)OCc2ccc(F)cc2)cc1 [Compound I-46, (S)-N-(4-(N-tert-butylsulfamoyl)phenyl)-2-(4-fluorobenzyloxy)-3-phenylpropanamide] | > 75% |  | > 1 µM |  | 
CC(C)(C)NS(=O)(=O)c1ccc(NC(=O)C2Cc3cnccc3N2C(=O)c2ccc(F)cc2)cc1 (stereo not shown) [Compound I-55, N-(4-(N-tert-butylsulfamoyl)phenyl)-1-(4-fluorobenzoyl)-2,3-dihydro-1H-pyrrolo[3,2-c]pyridine-2-carboxamide] | > 75% |  |  | > 10 µM | 
CC(C)(C)NS(=O)(=O)c1ccc(NC(=O)C2(NC(=O)c3ccccc3)CCc3ccccc3C2)cc1 (stereo not shown) [Compound I-48, 2-benzamido-N-(4-(N-tert-butylsulfamoyl)phenyl)-1,2,3,4-tetrahydronaphthalene-2-carboxamide] | > 75% |  | > 1 µM |  | 
CC(C)(C)NC(=O)c1ccc(NC(=O)[C@H](Cc2ccccc2)NC(=O)c2ccc(F)cc2)cc1 [Compound I-29, (S)-N-tert-butyl-4-(2-(4-fluorobenzamido)-3-phenylpropanamido)benzamide] | > 75% |  |  |  | > 1 µM
CCNS(=O)(=O)c1ccc(NC(=O)C2(NC(=O)c3ccccc3)CCc3ccccc3C2)cc1 (stereo not shown) [Compound I-47, 2-benzamido-N-(4-(N-ethylsulfamoyl)phenyl)-1,2,3,4-tetrahydronaphthalene-2-carboxamide] | > 75% |  | > 1 µM |  | 
CC(C)(C)NS(=O)(=O)c1cccc(NC(=O)[C@H](Cc2ccccc2)NC(=O)c2ccc(F)cc2)c1 [Compound I-68, (S)-N-(1-(3-(N-tert-butylsulfamoyl)phenylamino)-1-oxo-3-phenylpropan-2-yl)-4-fluorobenzamide] | > 75% |  |  |  | > 1 µM
CC(C)(C)NS(=O)(=O)c1ccc(NC(=O)C2Cc3ccccc3N2C(=O)c2ccc(F)cc2)cc1 (stereo not shown) [Compound I-53, N-(4-(N-tert-butylsulfamoyl)phenyl)-1-(4-fluorobenzoyl)indoline-2-carboxamide] | > 75% |  |  | > 10 µM | 
CC(C)(C)N[S+]([O-])c1ccc(NC(=O)[C@H](Cc2ccccc2)NC(=O)c2ccc(F)cc2)cc1 (stereo partly drawn) [Compound I-15, N-((2S)-1-(4-(N-tert-Butylsulfinamoyl)phenylamino)-1-oxo-3-phenylpropan-2-yl)-4-fluorobenzamide] | 25 to 50% |  | 0.05 to 1 µM |  | 
CC(C)(C)NS(=O)(=O)c1ccc(NC(=O)C2(NC(=O)c3ccc(F)cc3)CC2c2ccccc2)cc1 (racemic) [Compound I-83, racemic-N-((E)-1-(4-(N-tert-butylsulfamoyl)phenylcarbamoyl)-2-phenylcyclopropyl)-4-fluorobenzamide] | > 75% |  | > 1 µM |  | 
CC(C)(C)NS(=O)(=O)c1ccc(NC(=O)C2(NC(=O)c3ccc(F)cc3)CC2c2ccccc2)cc1 (racemic) [Compound I-82, racemic-N-(Z)-(1-(4-(N-tert-butylsulfamoyl)phenylcarbamoyl)-2-phenylcyclopropyl)-4-fluorobenzamide] | > 75% |  |  |  | > 1 µM
CC(C)(C)NS(=O)(=O)c1ccc(NC[C@@H](O)[C@H](Cc2ccccc2)NC(=O)c2ccc(F)cc2)cc1 [Compound I-42, N-((2S,3R)-4-(4-(N-tert-butylsulfamoyl)phenylamino)-3-hydroxy-1-phenylbutan-2-yl)-4-fluorobenzamide] | > 75% |  | 1 to 10 µM |  | 
CCNS(=O)(=O)c1ccc(NC(=O)[C@H](Cc2ccccc2)N(CC)C(=O)c2ccc(F)cc2)cc1 [Compound I-52, (S)-N-ethyl-N-(1-(4-(N-ethylsulfamoyl)phenylamino)-1-oxo-3-phenylpropan-2-yl)-4-fluorobenzamide] | > 75% |  |  | > 10 µM | 
CC(C)(C)NS(=O)(=O)c1ccc(N2Cc3ccccc3CC(NC(=O)c3ccc(F)cc3)C2=O)cc1 (stereo not shown) [Compound I-21, N-(2-(4-(N-tert-butylsulfamoyl)phenyl)-3-oxo-2,3,4,5-tetrahydro-1H-benzo[c]azepin-4-yl)-4-fluorobenzamide] | > 75% |  |  | > 10 µM | 
O=C(N[C@@H](Cc1ccccc1)C(=O)Nc1ccc(S(=O)(=O)NCC(F)(F)F)cc1)c1ccc(F)cc1 [Compound I-23, (S)-4-fluoro-N-(1-oxo-3-phenyl-1-(4-(N-(2,2,2-trifluoroethyl)sulfamoyl)phenylamino)propan-2-yl)benzamide] |  | 0.05 to 1 µM | < 0.05 µM |  | 
CC(C)(C)NS(=O)(=O)c1ccc(N2C(=O)C(NC(=O)c3ccc(F)cc3)Cc3ccccc32)cc1 (stereo not shown) [Compound I-20, N-(1-(4-(N-tert-butylsulfamoyl)phenyl)-2-oxo-1,2,3,4-tetrahydroquinolin-3-yl)-4-fluorobenzamide] | > 75% |  |  | > 10 µM | 

More lines, main results first:

activity at 1 µM (USP30 [1]) | IC50 [2, 4] | IC50 (USP30 [3]; [5]) | IC50 [2, 6] | SMILES | IC50 (USP30 [3]; [7])
> 75% | 1 to 10 µM |  |  | CC(C)(C)NS(=O)(=O)c1ccc(NC(=O)C2Cc3cccnc3CN2C(=O)c2ccc(F)cc2)cc1 (stereo not shown) [Compound I-59, N-(4-(N-tert-butylsulfamoyl)phenyl)-7-(4-fluorobenzoyl)-5,6,7,8-tetrahydro-1,7-naphthyridine-6-carboxamide] | 
 | 0.05 to 1 µM | 0.05 to 1 µM |  | O=C(N[C@@H](Cc1ccccc1)C(=O)Nc1ccc(S(=O)(=O)NC2CCC2)cc1)c1ccc(F)cn1 [Compound I-75, (S)-N-(1-(4-(N-cyclobutylsulfamoyl)phenylamino)-1-oxo-3-phenylpropan-2-yl)-5-fluoropicolinamide] | 
> 75% |  |  | > 10 µM | CC(C)(C)NS(=O)(=O)c1ccc(NC(=O)C2Cc3ncccc3CN2C(=O)c2ccc(F)cc2)cc1 (stereo not shown) [Compound I-60, N-(4-(N-tert-butylsulfamoyl)phenyl)-6-(4-fluorobenzoyl)-5,6,7,8-tetrahydro-1,6-naphthyridine-7-carboxamide] | 
 | 1 to 10 µM | 1 to 10 µM |  | CN(C(=O)c1ccc(F)cc1)[C@@H](Cc1ccccc1)C(=O)Nc1ccc(S(=O)(=O)NC2COC2)cc1 [Compound I-70, (S)-4-fluoro-N-methyl-N-(1-(4-(N-oxetan-3-ylsulfamoyl)phenylamino)-1-oxo-3-phenylpropan-2-yl)benzamide] | 
 | 0.05 to 1 µM | 0.05 to 1 µM |  | COCC(C)(C)NS(=O)(=O)c1ccc(NC(=O)[C@H](Cc2ccccc2)NC(=O)c2ccc(F)cc2)cn1 [Compound I-113, (S)-4-fluoro-N-(1-(6-(N-(1-methoxy-2-methylpropan-2-yl)sulfamoyl)pyridin-3-ylamino)-1-oxo-3-phenylpropan-2-yl)benzamide] | 
 | 0.05 to 1 µM | 0.05 to 1 µM |  | O=C(N[C@@H](Cc1ccccc1)C(=O)Nc1ccc(S(=O)(=O)NC2COC2)cn1)c1ccc(F)cc1 [Compound I-119, (S)-4-fluoro-N-(1-(5-(N-oxetan-3-ylsulfamoyl)pyridin-2-ylamino)-1-oxo-3-phenylpropan-2-yl)benzamide] | 
 |  | < 0.05 µM | < 0.05 µM | CC(C)(CN1CCOCC1)NS(=O)(=O)c1ccc(NC(=O)[C@H](Cc2ccccc2)NC(=O)c2ccc(F)cc2)cc1 [Compound I-162, (S)-4-fluoro-N-(1-(4-(N-(2-methyl-1-morpholinopropan-2-yl)sulfamoyl)phenylamino)-1-oxo-3-phenylpropan-2-yl)benzamide] | 
 | 0.05 to 1 µM | 0.05 to 1 µM |  | CCNS(=O)(=O)c1ccc(NC(=O)[C@H](Cc2ccccc2)NC(=O)c2ccc(F)cc2)cc1OC [Compound I-146, (S)-N-(1-(4-(N-ethylsulfamoyl)-3-methoxyphenylamino)-1-oxo-3-phenylpropan-2-yl)-4-fluorobenzamide] | 
 | 0.05 to 1 µM | < 0.05 µM |  | COCC(C)(C)NS(=O)(=O)c1ccc(NC(=O)[C@H](Cc2ccccc2)NC(=O)c2ccc(F)cc2)cc1OC [Compound I-149, (S)-4-fluoro-N-(1-(3-methoxy-4-(N-(1-methoxy-2-methylpropan-2-yl)sulfamoyl)phenylamino)-1-oxo-3-phenylpropan-2-yl)benzamide] | 
